# Earlier results in patent US4922021A, “New alkylene diamine derivatives” (BASF Aktiensellschaft, priority 1981, dated 1990).
# How the values were obtained:
# [1] = tested on: respiratory centre; conditions: Bull. Soc. Chim. France 1947, 827; cited from earlier work
# [2] = tested on: sympathic nervious system; conditions: Bull. Soc. Chim. France 1940, 603; cited from earlier work
# [3] = literature; cited from earlier work
compound,measurement,setting,value
CCN(CC)CCNc1cccc(Cl)c1 [1-(3-chlorophenyl-amino)-2-diethylamino-ethane],stimulates the respiratory centre,[1],stimulates the respiratory centre
CC(CN)Nc1ccccc1 (stereo not drawn) [1-amino-2-phenylamino-propane],acting on the sympathetic nervous system,[2],acting on the sympathic nervious system
"CCN(CC)CCNc1c(C)cccc1C [1-(2,6-dimethylphenyl-amino)-2-diethylamino-ethane]",local anaesthetic effects,[3],local anaesthetic effects
